In patent US9624215B2, “Amine derivative or salt thereof” (TOYAMA CHEMICAL CO., LTD., priority 2012, dated 2017):

Tested on: normal human neonatal foreskin epidermal keratinocytes (NHEK-F)
Assay: Cell proliferation inhibition test
Type: cell-based
Conditions: Keratinocyte, 72 h, NHEK-F cells, three days incubation, ATPlite or CellTiterGlo, read-out: IC50 (concentration of the compound at which the cell count is reduced by 50%)
Protocol: 2×10^3 normal human neonatal foreskin epidermal keratinocytes (NHEK-F) (Kurabo, KK-4009) were suspended in 100 μL of Humedia-EG2 (Kurabo, KK-2150S) medium, plated in a 96-well plate and incubated overnight. The test compound was added on the following day and the cells were incubated for further three days. The cell count was determined using ATPlite (PerkinElmer, 6016739) or CellTiterGlo (Promega, G7573).
The inhibition rate was calculated from the following formula to determine the concentration of the compound at which the cell count is reduced by 50% (IC50). Inhibition rate (%)=100−(cell count in the presence of test compound/cell count in the absence of test compound)×100

O=C(O)c1cc(C2CC2)cnc1Nc1ccc2c(-c3ccccc3)cccc2c1 [Example 177, 5-cyclopropyl-2-((5-phenylnaphthalen-2-yl)amino)nicotinic acid]
IC50: ≤ 0.01 µM

O=C(O)c1cc(C2CC2)cnc1Nc1ccc2c(ccn2Cc2ccccc2Cl)c1 [Example 459, 2-((1-(2-chlorobenzyl)-1H-indol-5-yl)amino)-5-cyclopropylnicotinic acid]
IC50: ≤ 0.01 µM

Cn1ccc2cc(Nc3ncc(C4CC4)cc3C(=O)O)cc(-c3ccc(Cl)cc3)c21 [Example 490, 2-((7-(4-chlorophenyl)-1-methyl-1H-indol-5-yl)amino)-5-cyclopropylnicotinic acid]
IC50: ≤ 0.01 µM

O=C(O)c1cc(Cl)ccc1Nc1ccc2c(ccn2-c2cscn2)c1 [Example 271, 5-chloro-2-((1-(thiazol-4-yl)-1H-indol-5-yl)amino)benzoic acid]
IC50: 0.01 to 0.1 µM

Cn1ccc2cc(Nc3ncc(C4CC4)cc3C(=O)O)cc(-c3cccc(F)c3)c21 [Example 465, 5-cyclopropyl-2-((7-(3-fluorophenyl)-1-methyl-1H-indol-5-yl)amino)nicotinic acid]
IC50: ≤ 0.01 µM

Cn1ccc2cc(Nc3ncc(C4CC4)cc3C(=O)O)cc(-c3ccccc3Cl)c21 [Example 488, 2-((7-(2-chlorophenyl)-1-methyl-1H-indol-5-yl)amino)-5-cyclopropylnicotinic acid]
IC50: ≤ 0.01 µM

O=C(O)c1cc(Cl)ccc1Nc1ccc2c(ccn2Cc2cccc(OCc3ccccn3)c2)c1 [Example 19, 5-chloro-2-((1-(3-(pyridin-2-ylmethoxy)benzyl)-1H-indol-5-yl)amino)benzoic acid]
IC50: ≤ 0.01 µM

Cn1ccc2cc(Nc3ncc(C4CC4)cc3C(=O)O)cc(-c3cccc(Cl)c3)c21 [Example 489, 2-((7-(3-chlorophenyl)-1-methyl-1H-indol-5-yl)amino)-5-cyclopropylnicotinic acid]
IC50: ≤ 0.01 µM

Cn1ccc2cc(Nc3ncc(C4CC4)cc3C(=O)O)cc(-c3cccc(F)c3F)c21 [Example 587, 5-cyclopropyl-2-((7-(2,3-difluorophenyl)-1-methyl-1H-indol-5-yl)amino)nicotinic acid]
IC50: ≤ 0.01 µM

Cn1ccc2cc(Nc3ncc(C4CC4)cc3C(=O)O)cc(/C=C/C(C)(C)C)c21 [Example 594, 5-cyclopropyl-2-((7-((1E)-3,3-dimethylbut-1-en-1-yl)-1-methyl-1H-indol-5-yl)amino)nicotinic acid]
IC50: ≤ 0.01 µM

Cc1cc2cc(Nc3ncc(C4CC4)cc3C(=O)O)ccc2n1C [Example 391, 5-cyclopropyl-2-((1,2-dimethyl-1H-indol-5-yl)amino)nicotinic acid]
IC50: 0.1 to 1 µM

O=C(O)c1cc(Cl)ccc1Nc1cccc2c1ccn2Cc1ccccc1 [Example 6, 2-((1-benzyl-1H-indol-4-yl)amino)-5-chlorobenzoic acid]
IC50: 0.01 to 0.1 µM

CC(C)(C)c1cc2cc(Nc3ncc(C4CC4)cc3C(=O)O)ccc2[nH]1 [Example 389, 2-((2-(tert-butyl)-1H-indol-5-yl)amino)-5-cyclopropylnicotinic acid]
IC50: 0.1 to 1 µM

CS(=O)(=O)NC(=O)c1cc(C2CC2)cnc1Nc1ccc2c(ccn2-c2ccccc2)c1 [Example 159, 5-cyclopropyl-N-(methylsulfonyl)-2-((1-phenyl-1H-indol-5-yl)amino)nicotinamide]
IC50: 0.01 to 0.1 µM

CC(C)n1ccc2cc(Nc3ncc(C4CC4)cc3C(=O)O)ccc21 [Example 123, 5-cyclopropyl-2-((1-isopropyl-1H-indol-5-yl)amino)nicotinic acid]
IC50: 0.01 to 0.1 µM

Cc1cnc(Nc2ccc3c(ccn3Cc3ccccc3)c2)c(C(=O)O)c1 [Example 125, 2-((1-benzyl-1H-indol-5-yl)amino)-5-methylnicotinic acid]
IC50: 0.01 to 0.1 µM

O=C(O)c1cc(C2CC2)cnc1Nc1cccc2c(-c3ccccc3)ncnc12 [Example 531, 5-cyclopropyl-2-((4-phenylquinazolin-8-yl)amino)nicotinic acid]
IC50: 0.01 to 0.1 µM

O=C(O)c1cc(C2CC2)cnc1Nc1cccc2c(N3CCOCC3)nccc12 [Example 475, 5-cyclopropyl-2-(1-morpholinoisoquinolin-5-ylamino)nicotinic acid]
IC50: 0.1 to 1 µM

Cn1ccc2cc(Nc3ncc(Cl)cc3C(=O)O)cc(-c3ccccc3)c21 [Example 625, 5-chloro-2-((1-methyl-7-phenyl-1H-indol-5-yl)amino)nicotinic acid]
IC50: 0.01 to 0.1 µM

Cn1ccc2cc(Nc3ncc(C4CC4)cc3C(=O)O)cc(C3=CCOCC3)c21 [Example 471, 5-cyclopropyl-2-((7-(3,6-dihydro-2H-pyran-4-yl)-1-methyl-1H-indol-5-yl)amino)nicotinic acid]
IC50: ≤ 0.01 µM

O=C(O)c1cc(C(F)(F)F)cnc1Nc1ccc2c(ccn2Cc2ccccc2)c1 [Example 116, 2-((1-benzyl-1H-indol-5-yl)amino)-5-(trifluoromethyl)nicotinic acid]
IC50: ≤ 0.01 µM

Cn1ccc2cc(Nc3ncc(C4CC4)cc3C(=O)O)cc(-c3cccc(C#N)c3)c21 [Example 483, 2-((7-(3-cyanophenyl)-1-methyl-1H-indol-5-yl)amino)-5-cyclopropylnicotinic acid]
IC50: ≤ 0.01 µM

COCCN(C)c1cccc(Cn2ccc3cc(Nc4ncc(C5CC5)cc4C(=O)O)ccc32)c1 [Example 511, 5-cyclopropyl-2-((1-(3-((2-methoxyethyl)(methyl)amino)benzyl)-1H-indol-5-yl)amino)nicotinic acid]
IC50: ≤ 0.01 µM

Cn1ccc2cc(Nc3ncc(C4CC4)cc3C(=O)O)cc(CCC3CCCCC3)c21 [Example 593, 2-((7-(2-cyclohexylethyl)-1-methyl-1H-indol-5-yl)amino)-5-cyclopropylnicotinic acid]
IC50: ≤ 0.01 µM

Cn1ccc2cc(Nc3ncc(C4CC4)cc3C(=O)O)cc(-c3cc(F)cc(F)c3)c21 [Example 586, 5-cyclopropyl-2-((7-(3,5-difluorophenyl)-1-methyl-1H-indol-5-yl)amino)nicotinic acid]
IC50: ≤ 0.01 µM

CCCn1ccc2cc(Nc3ncc(C4CC4)cc3C(=O)O)ccc21 [Example 636, 5-cyclopropyl-2-((1-propyl-1H-indol-5-yl)amino)nicotinic acid]
IC50: 0.01 to 0.1 µM

O=C(O)c1cc(Cl)ccc1Nc1ccc2c(ccn2-c2ccc(Cl)cc2)c1 [Example 47, 5-chloro-2-((1-(4-chlorophenyl)-1H-indol-5-yl)amino)benzoic acid]
IC50: ≤ 0.01 µM

O=C(O)c1cc(C2CC2)cnc1Nc1cccc2c(N3CCCCC3)nccc12 [Example 473, 5-cyclopropyl-2-(1-(piperidin-1-yl)isoquinolin-5-ylamino)nicotinic acid]
IC50: 0.01 to 0.1 µM

O=C(O)c1cc(C2CC2)cnc1Nc1ccc2c(ccn2-c2cccc(F)c2)c1 [Example 231, 5-cyclopropyl-2-((1-(3-fluorophenyl)-1H-indol-5-yl)amino)nicotinic acid]
IC50: ≤ 0.01 µM

CC(C)Cn1c(=O)sc2cc(Nc3ncc(C4CC4)cc3C(=O)O)ccc21 [Example 563, 5-Cyclopropyl-2-((3-isobutyl-2-oxo-2,3-dihydro-1,3-benzothiazol-6-yl)amino)nicotinic acid]
IC50: 0.01 to 0.1 µM

CSc1nccc(-n2ccc3cc(Nc4ccc(Cl)cc4C(=O)O)ccc32)n1 [Example 319, 5-chloro-2-((1-(2-(methylthio)pyrimidin-4-yl)-1H-indol-5-yl)amino)benzoic acid]
IC50: 0.01 to 0.1 µM

Cn1ccc2cc(Nc3ncc(C4CC4)cc3C(=O)O)cc(-c3ccc(OC(F)(F)F)cc3)c21 [Example 493, 5-cyclopropyl-2-((1-methyl-7-(4-(trifluoromethoxy)phenyl)-1H-indol-5-yl)amino)nicotinic acid]
IC50: ≤ 0.01 µM

Cc1ccccc1-c1cn(C)c2ccc(Nc3ncc(C4CC4)cc3C(=O)O)cc12 [Example 567, 5-cyclopropyl-2-((1-methyl-3-(2-methylphenyl)-1H-indol-5-yl)amino)nicotinic acid]
IC50: 0.01 to 0.1 µM

O=C(O)c1cc(Cl)ccc1Nc1ccc2c(c1)cc(CO)n2Cc1ccccc1 [Example 25, 2-((1-benzyl-2-(hydroxymethyl)-1H-indol-5-yl)amino)-5-chlorobenzoic acid]
IC50: 0.01 to 0.1 µM

Cn1ccc2cc(Nc3ncc(C4CC4)cc3C(=O)O)cc(-c3ccccc3-c3ccccc3)c21 [Example 463, 2-((7-([1,1′-biphenyl]-2-yl)-1-methyl-1H-indol-5-yl)amino)-5-cyclopropylnicotinic acid]
IC50: ≤ 0.01 µM

O=C(O)c1cc(C2CC2)ccc1Nc1ccc2c(ccn2C(=O)c2ccc(Cl)cc2)c1 [Example 204, 2-((1-(4-chlorobenzoyl)-1H-indol-5-yl)amino)-5-cyclopropylbenzoic acid]
IC50: 0.01 to 0.1 µM

O=C(O)c1cc(C2CC2)cnc1Nc1cccc2c1ccn2CC1CCCC1 [Example 537, 2-((1-(Cyclopentylmethyl)-1H-indol-4-yl)amino)-5-cyclopropylnicotinic acid]
IC50: ≤ 0.01 µM

CC(C)n1ccc2c(Nc3ncc(C4CC4)cc3C(=O)O)cccc21 [Example 435, 5-cyclopropyl-2-((1-isopropyl-1H-indol-4-yl)amino)nicotinic acid]
IC50: 0.01 to 0.1 µM

O=C(O)c1cc(C2CC2)cnc1Nc1ccc2c(ccn2Cc2ccc(Cl)cc2)c1 [Example 461, 2-((1-(4-Chlorobenzyl)-1H-indol-5-yl)amino)-5-cyclopropylnicotinic acid]
IC50: ≤ 0.01 µM

O=C(O)c1cc(C2CC2)cnc1Nc1cc2ccn(Cc3ccccc3)c2cc1F [Example 552, 2-((1-benzyl-6-fluoro-1H-indol-5-yl)amino)-5-cyclopropylnicotinic acid]
IC50: ≤ 0.01 µM

O=C(O)c1cc(Cl)ccc1Nc1ccc2c(c1)c(C(=O)c1ccccc1)cn2Cc1ccccc1 [Example 86, 2-((3-benzoyl-1-benzyl-1H-indol-5-yl)amino)-5-chlorobenzoic acid]
IC50: 0.1 to 1 µM
